Data published in patent publication US20250051277A1, “DELIVERY OF THERAPEUTIC ALKALOID COMPOUNDS” (Sensorium Therapeutics, Inc., priority 2021, published 2025).
Like-named read-outs stand apart in the source and are kept apart here.

How the values were obtained:
[1] = format: physicochemical; conditions: SGF with pepsin, pH 1.5, 37° C.; for Condition 1 Conversion (%), first value of pair x/y: first of two values; for Condition 1 Conversion (%), second value of pair x/y: second of two values; for Condition 1 Conversion (%): 0.5 mM
[2] = format: physicochemical; conditions: DI water, 25° C., 0.5 mM

COc1ccc([C@@]23CC/C(=N\OC(C)(C)OC)C[C@@H]2N(C)CC3)cc1OC [Compound 204, (E,3aS,7aS)-3a-(3,4-dimethoxyphenyl)-N-(1-methoxy-1-methyl-ethoxy)-1-methyl-2,3,4,5,7,7a-hexahydroindol-6-imine]
Condition 1 Conversion (%), first value of pair x/y ([1]; time 1 min): 100% | Condition 1 Conversion (%), second value of pair x/y ([1]; time 1 min): 0% | Condition 1 Conversion (%), first value of pair x/y ([1]; time 5 min): 100% | Condition 1 Conversion (%), second value of pair x/y ([1]; time 5 min): 0% | Condition 1 Conversion (%), first value of pair x/y ([1]; time 30 min): 0% | Condition 1 Conversion (%), second value of pair x/y ([1]; time 30 min): 100% | Condition 1 Conversion (%), first value of pair x/y ([1]; time 1 h): 0% | Condition 1 Conversion (%), second value of pair x/y ([1]; time 1 h): 100% | Condition 1 Conversion (%), first value of pair x/y ([1]; time 4 h): 0% | Condition 1 Conversion (%), second value of pair x/y ([1]; time 4 h): 100% | Condition 1 Conversion (%), first value of pair x/y ([1]; time 24 h): 0% | Condition 1 Conversion (%), second value of pair x/y ([1]; time 24 h): 100% | Condition 2 Conversion (%) ([2]; time 1 min): 0% | Condition 2 Conversion (%) ([2]; time 5 min): 0% | Condition 2 Conversion (%) ([2]; time 30 min): 0% | Condition 2 Conversion (%) ([2]; time 1 h): 0% | Condition 2 Conversion (%) ([2]; time 4 h): 0% | Condition 2 Conversion (%) ([2]; time 24 h): 0%

COc1ccc([C@@]23CCC(=NOCC4CC4)C[C@@H]2N(C)CC3)cc1OC [Compound 205, (3aS,7aS)-N-(cyclopropylmethoxy)-3a-(3,4-dimethoxyphenyl)-1-methyl-2,3,4,5,7,7a-hexahydroindol-6-imine]
Condition 1 Conversion (%) ([1]; time 1 min): 0% | Condition 1 Conversion (%) ([1]; time 5 min): 0% | Condition 1 Conversion (%) ([1]; time 30 min): 4.5% | Condition 1 Conversion (%) ([1]; time 1 h): 9.4% | Condition 1 Conversion (%) ([1]; time 4 h): 16.7% | Condition 1 Conversion (%) ([1]; time 24 h): 19.3% | Condition 2 Conversion (%) ([2]; time 1 min): 0% | Condition 2 Conversion (%) ([2]; time 5 min): 0% | Condition 2 Conversion (%) ([2]; time 30 min): 0% | Condition 2 Conversion (%) ([2]; time 1 h): 0% | Condition 2 Conversion (%) ([2]; time 4 h): 0% | Condition 2 Conversion (%) ([2]; time 24 h): 0%

COc1ccc([C@@]23CCC(=NOC4CCCCO4)C[C@@H]2N(C)CC3)cc1OC (stereo partly drawn) [Compound 206, (3aS,7aS)-3a-(3,4-dimethoxyphenyl)-1-methyl-N-tetrahydropyran-2-yloxy-2,3,4,5,7,7a-hexahydroindol-6-imine]
Condition 1 Conversion (%) ([1]; time 1 min): 0% | Condition 1 Conversion (%) ([1]; time 5 min): 0% | Condition 1 Conversion (%), first value of pair x/y ([1]; time 30 min): 1.41% | Condition 1 Conversion (%), second value of pair x/y ([1]; time 30 min): 0% | Condition 1 Conversion (%), first value of pair x/y ([1]; time 1 h): 7.83% | Condition 1 Conversion (%), second value of pair x/y ([1]; time 1 h): 2.57% | Condition 1 Conversion (%), first value of pair x/y ([1]; time 4 h): 0% | Condition 1 Conversion (%), second value of pair x/y ([1]; time 4 h): 77.75% | Condition 1 Conversion (%), first value of pair x/y ([1]; time 24 h): 0% | Condition 1 Conversion (%), second value of pair x/y ([1]; time 24 h): 100% | Condition 2 Conversion (%) ([2]; time 1 min): 0% | Condition 2 Conversion (%) ([2]; time 5 min): 0% | Condition 2 Conversion (%) ([2]; time 30 min): 0% | Condition 2 Conversion (%) ([2]; time 1 h): 0% | Condition 2 Conversion (%) ([2]; time 4 h): 0% | Condition 2 Conversion (%) ([2]; time 24 h): 0%

COc1ccc([C@@]23CCC(=NOc4ccccc4)C[C@@H]2N(C)CC3)cc1OC [Compound 207, (3aS,7aS)-3a-(3,4-dimethoxyphenyl)-1-methyl-N-phenoxy-2,3,4,5,7,7a-hexahydroindol-6-imine]
Condition 1 Conversion (%) ([1]; time 1 min): 0% | Condition 1 Conversion (%) ([1]; time 5 min): 0% | Condition 1 Conversion (%) ([1]; time 30 min): 0% | Condition 1 Conversion (%) ([1]; time 1 h): 0% | Condition 1 Conversion (%) ([1]; time 4 h): 1.5% | Condition 1 Conversion (%) ([1]; time 24 h): 7.9% | Condition 2 Conversion (%) ([2]; time 1 min): 0% | Condition 2 Conversion (%) ([2]; time 5 min): 0% | Condition 2 Conversion (%) ([2]; time 30 min): 0% | Condition 2 Conversion (%) ([2]; time 1 h): 0% | Condition 2 Conversion (%) ([2]; time 4 h): 0% | Condition 2 Conversion (%) ([2]; time 24 h): 0%

COc1ccc([C@@]23CCC(=NOCc4ccccc4)C[C@@H]2N(C)CC3)cc1OC [Compound 208, (3aS,7aS)-N-benzyloxy-3a-(3,4-dimethoxyphenyl)-1-methyl-2,3,4,5,7,7a-hexahydroindol-6-imine]
Condition 1 Conversion (%) ([1]; time 1 min): 0% | Condition 1 Conversion (%) ([1]; time 5 min): 0% | Condition 1 Conversion (%) ([1]; time 30 min): 0% | Condition 1 Conversion (%) ([1]; time 1 h): 0% | Condition 1 Conversion (%) ([1]; time 4 h): 11.5% | Condition 1 Conversion (%) ([1]; time 24 h): 12% | Condition 2 Conversion (%) ([2]; time 1 min): 0% | Condition 2 Conversion (%) ([2]; time 5 min): 0% | Condition 2 Conversion (%) ([2]; time 30 min): 0% | Condition 2 Conversion (%) ([2]; time 1 h): 0% | Condition 2 Conversion (%) ([2]; time 4 h): 0% | Condition 2 Conversion (%) ([2]; time 24 h): 0%

COc1ccc([C@@]23CCC(=NOCc4cccnc4)C[C@@H]2N(C)CC3)cc1OC [Compound 209, (3aS)-3a-(3,4-dimethoxyphenyl)-1-methyl-N-(3-pyridylmethoxy)-2,3,4,5,7,7a-hexahydroindol-6-imine]
Condition 1 Conversion (%) ([1]; time 1 min): 0% | Condition 1 Conversion (%) ([1]; time 5 min): 0% | Condition 1 Conversion (%) ([1]; time 30 min): 0% | Condition 1 Conversion (%) ([1]; time 1 h): 0% | Condition 1 Conversion (%) ([1]; time 4 h): 0% | Condition 1 Conversion (%) ([1]; time 24 h): 0% | Condition 2 Conversion (%) ([2]; time 1 min): 0% | Condition 2 Conversion (%) ([2]; time 5 min): 0% | Condition 2 Conversion (%) ([2]; time 30 min): 0% | Condition 2 Conversion (%) ([2]; time 1 h): 0% | Condition 2 Conversion (%) ([2]; time 4 h): 0% | Condition 2 Conversion (%) ([2]; time 24 h): 0%

COc1ccc([C@@]23CCC(=NOCCON=C4CC[C@@]5(c6ccc(OC)c(OC)c6)CCN(C)[C@H]5C4)C[C@@H]2N(C)CC3)cc1OC [Compound 210, (3aS,7aS)-N-[2-[[(3aS,7aS)-3a-(3,4-dimethoxyphenyl)-1-methyl-2,3,4,5,7,7a-hexahydroindol-6-ylidene]amino]oxyethoxy]-3a-(3,4-dimethoxyphenyl)-1-methyl-2,3,4,5,7,7a-hexahydroindol-6-imine]
Condition 1 Conversion (%) ([1]; time 1 min): 0% | Condition 1 Conversion (%) ([1]; time 5 min): 0% | Condition 1 Conversion (%) ([1]; time 30 min): 3.48% | Condition 1 Conversion (%) ([1]; time 1 h): 7.51% | Condition 1 Conversion (%) ([1]; time 4 h): 14.75% | Condition 1 Conversion (%) ([1]; time 24 h): 15.35% | Condition 2 Conversion (%) ([2]; time 1 min): 0% | Condition 2 Conversion (%) ([2]; time 5 min): 0% | Condition 2 Conversion (%) ([2]; time 30 min): 0% | Condition 2 Conversion (%) ([2]; time 1 h): 0% | Condition 2 Conversion (%) ([2]; time 4 h): 0% | Condition 2 Conversion (%) ([2]; time 24 h): 0%

COc1ccc([C@]23CCN(C)[C@H]2CC2(CC3)OCC(C(=O)O)O2)cc1OC (stereo partly drawn) [Compound 214, (3aS,7aS)-3a-(3,4-dimethoxyphenyl)-1-methyloctahydrospiro[indole-6,2′-[1,3]dioxolane]-4′-carboxylic acid]
Condition 1 Conversion (%) ([1]; time 1 min): 0% | Condition 1 Conversion (%) ([1]; time 5 min): 0% | Condition 1 Conversion (%) ([1]; time 30 min): 0% | Condition 1 Conversion (%) ([1]; time 1 h): 0% | Condition 1 Conversion (%) ([1]; time 4 h): 0% | Condition 1 Conversion (%) ([1]; time 24 h): 0% | Condition 2 Conversion (%) ([2]; time 1 min): 0% | Condition 2 Conversion (%) ([2]; time 5 min): 0% | Condition 2 Conversion (%) ([2]; time 30 min): 0% | Condition 2 Conversion (%) ([2]; time 1 h): 0% | Condition 2 Conversion (%) ([2]; time 4 h): 0% | Condition 2 Conversion (%) ([2]; time 24 h): 0%

COc1ccc([C@@]23CC/C(=N/OC(C)(C)OC)C[C@@H]2N(C)CC3)cc1OC [Compound 219, (Z,3aS,7aS)-3a-(3,4-dimethoxyphenyl)-N-(1-methoxy-1-methyl-ethoxy)-1-methyl-2,3,4,5,7,7a-hexahydroindol-6-imine]
Condition 1 Conversion (%), first value of pair x/y ([1]; time 1 min): 100% | Condition 1 Conversion (%), second value of pair x/y ([1]; time 1 min): 0% | Condition 1 Conversion (%), first value of pair x/y ([1]; time 5 min): 100% | Condition 1 Conversion (%), second value of pair x/y ([1]; time 5 min): 0% | Condition 1 Conversion (%), first value of pair x/y ([1]; time 30 min): 0% | Condition 1 Conversion (%), second value of pair x/y ([1]; time 30 min): 100% | Condition 1 Conversion (%), first value of pair x/y ([1]; time 1 h): 0% | Condition 1 Conversion (%), second value of pair x/y ([1]; time 1 h): 100% | Condition 1 Conversion (%), first value of pair x/y ([1]; time 4 h): 0% | Condition 1 Conversion (%), second value of pair x/y ([1]; time 4 h): 100% | Condition 1 Conversion (%), first value of pair x/y ([1]; time 24 h): 0% | Condition 1 Conversion (%), second value of pair x/y ([1]; time 24 h): 100% | Condition 2 Conversion (%) ([2]; time 1 min): 0% | Condition 2 Conversion (%) ([2]; time 5 min): 0% | Condition 2 Conversion (%) ([2]; time 30 min): 0% | Condition 2 Conversion (%) ([2]; time 1 h): 0% | Condition 2 Conversion (%) ([2]; time 4 h): 0% | Condition 2 Conversion (%) ([2]; time 24 h): 0%
